The supplement of paper PMC10307832

Tests used:
Assay in all cases: relative viability (nuclei count vs DMSO), 5 days (fraction); higher = more cells survive
[1] = compound: C1=CC2=C(C=CC(=C2)C=C3C(=O)NC(=NCC4=CC=CS4)S3)N=C1 [RO-3306]
Procedure, shortened: (§1)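 Cells of lung cancer lines were placed in 1536-well plates and kept overnight at 37 °C. Pinning then delivered five library-drug doses (not always all listed), spaced by √10, onto plates anchored with vehicle, and the cells were left 5 days without changing medium. One step fixed, permeabilised and stained them with Hoechst, and MetaXpress counted nuclei in 4× images. Viability, as a median over plates, is treated-well nuclei divided by vehicle-well nuclei, with acceptance only at control CV below 25% and at least one doubling.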

[2] = compound: COc1cc2c(Oc3ccc(NC(=O)C4(C(=O)Nc5ccc(F)cc5)CC4)cc3F)ccnc2cc1OCCCN1CCOCC1 [Foretinib] (anchor plate); conditions: 0.25 µM
Procedure, shortened: as §1

[3] = compound: O=S(=O)(c1ccccc1)N(CC(F)(F)F)c1ccc(C(O)(C(F)(F)F)C(F)(F)F)cc1
Procedure, shortened: as §1

[4] = compound: C1=CC2=C(C=CC(=C2)C=C3C(=O)NC(=NCC4=CC=CS4)S3)N=C1 [RO-3306] + NC(=O)Nc1cc(-c2cccc(F)c2)sc1C(=O)N[C@H]1CCCNC1 [AZD7762] (partner 0.2 µM)
Procedure, shortened: (§2)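 Medians of duplicate plates are given as relative viability. That measure is the nuclei count in treated wells divided by the count in vehicle wells. Counts were taken on 4× images of lung cancer cell lines in 1536-well plates, 5 days after pin-tool dosing the day after seeding with one drug alone or a fixed anchor-drug dose plus five library-drug doses (not always all listed) in √10 steps.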

[5] = compound: O=S(=O)(c1ccccc1)N(CC(F)(F)F)c1ccc(C(O)(C(F)(F)F)C(F)(F)F)cc1 + Cc1cc(Nc2cc(N3CCN(C)CC3)nc(Sc3ccc(NC(=O)C4CC4)cc3)n2)n[nH]1 [Tozasertib] (partner 0.1 µM)
Procedure, shortened: as §2

[6] = compound: O=S(=O)(c1ccccc1)N(CC(F)(F)F)c1ccc(C(O)(C(F)(F)F)C(F)(F)F)cc1 + O=C(c1cc(Cc2n[nH]c(=O)c3ccccc23)ccc1F)N1CCN(C(=O)C2CC2)CC1 [Olaparib] (partner 8 µM)
Procedure, shortened: as §2

Cell Line	relative viability ([1]; 0.01 µM)	relative viability ([1]; 0.03162 µM)	relative viability ([1]; 0.1 µM)	relative viability ([1]; 0.3162 µM)	relative viability ([1]; 1 µM)	relative viability [2]	relative viability ([3]; 0.8 µM)	relative viability ([3]; 2.53 µM)	relative viability ([3]; 8 µM)	relative viability ([4]; first compound 0.01 µM)	relative viability ([4]; first compound 0.03162 µM)	relative viability ([4]; first compound 0.1 µM)	relative viability ([4]; first compound 0.3162 µM)	relative viability ([4]; first compound 1 µM)	relative viability ([5]; first compound 0.8 µM)	relative viability ([5]; first compound 2.53 µM)	relative viability ([5]; first compound 8 µM)	relative viability ([6]; first compound 0.8 µM)	relative viability ([6]; first compound 2.53 µM)	relative viability ([6]; first compound 8 µM)
HCC-15	1.13	0.897	0.998	1.07	0.992	1.05	1.04	0.871	0.861	1.25	1.08	1.12	1.21	1.34	0.498	0.341	0.322	0.737	0.581	0.644
HCC-44	0.985	1	1.02	0.957	0.901	–	0.98	0.988	0.97	1.04	1.1	1.01	1	1.01	–	0.862	0.894	0.932	0.969	0.999
NCI-H2170	1.06	0.946	0.952	1.01	0.991	1.01	1.08	0.964	0.913	1.11	0.865	0.938	0.939	0.907	0.784	0.616	0.629	0.666	0.563	0.609
NCI-H2228	1.07	0.96	1.09	1	0.696	0.886	1.08	0.962	0.937	–	–	–	–	–	0.265	0.176	0.183	0.678	0.578	0.589
NCI-H727	0.892	0.704	1.01	1	1.2	0.892	1.08	0.702	0.898	0.488	0.681	0.558	0.567	0.739	0.605	0.572	0.674	0.657	0.706	0.704
NCI-H522	1.09	0.867	0.827	0.875	0.962	–	1.06	0.954	1.15	0.914	0.734	0.914	0.89	0.843	0.567	0.488	0.615	0.597	0.614	0.714
NCI-H1563	0.966	0.887	0.936	0.993	0.953	0.93	0.95	1.02	0.947	–	–	–	–	–	–	–	–	–	–	–
EPLC-272H	0.866	0.73	0.921	0.901	0.791	0.723	0.942	0.929	0.982	0.152	–	0.138	0.188	0.199	0.366	0.379	0.312	0.888	0.859	0.645
NCI-H1437	1.03	0.942	0.926	1.03	1.08	1.24	0.95	0.877	0.849	1.2	1.08	1.11	1.15	0.882	0.411	0.337	0.275	0.598	0.591	0.597
CAL-12T	1.01	0.884	0.906	0.977	1.07	1.13	0.88	0.804	0.811	0.718	0.565	0.575	0.658	0.747	0.299	0.331	0.242	0.686	0.616	0.591
SK-LU-1	1.08	0.924	1.07	1.01	0.995	0.785	1.16	1.08	0.992	–	–	–	–	–	0.285	0.328	0.301	0.446	0.472	0.433
LCLC-97TM1	0.895	0.799	0.932	1.04	0.942	0.937	0.796	0.837	0.885	0.258	–	0.197	0.31	0.26	0.218	0.21	0.156	–	0.355	0.257
LXF-289	1.01	1	1.01	1.02	1	0.991	0.949	0.882	0.843	1.08	0.993	1.17	0.973	1.22	0.213	0.203	0.153	1.03	0.91	1.04
HCC-366	1.12	0.951	0.966	1.09	1.06	0.942	1.12	0.979	0.983	0.242	0.215	0.254	0.347	0.417	0.133	0.0684	0.0773	0.414	0.37	0.281
NCI-H1355	1.12	0.907	1.01	1.01	0.914	0.973	1.05	0.918	0.884	0.792	0.762	0.677	0.694	0.863	0.555	0.5	0.518	0.824	0.737	0.719
H3255	1.02	0.913	0.995	0.946	0.93	0.881	0.913	0.808	0.84	0.897	0.774	0.856	0.888	0.848	0.629	0.663	0.66	0.533	0.488	0.439
